Measurements from US20250235456A1, “METHODS OF USE FOR AZA-QUINAZOLINE COMPOUNDS” (Iambic Therapeutics, Inc., priority 2024, published 2025).

Assays:
Format in all cases: biochemical
CDK1/Cyclin B1 = CDK1/Cyclin B1 (Homo sapiens (Human), UniProt P06493); experiment: CDK1/Cyclin B1 ADP-Glo Kinase Assay
Outline: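 Purchased CDK1/Cyclin B1 was pre-incubated 30 min with inhibitor at room temperature, then reacted 90 min at room temperature after adding ATP-containing substrate. ADP formed was read by two-step ADP-Glo luminescence. IC50 came from a 4-parameter fit of fractional velocity versus inhibitor concentration.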

CDK4/Cyclin D1 [1] = target: T1, CDK4/Cyclin D1 (Homo sapiens (Human), UniProt P11802); experiment: CDK4/Cyclin D1 Mobility Shift Assay (MSA); conditions: read-out: CDK4/CyclinD1 MSA IC50
T1 sequence (P11802 whole entry, species assumed): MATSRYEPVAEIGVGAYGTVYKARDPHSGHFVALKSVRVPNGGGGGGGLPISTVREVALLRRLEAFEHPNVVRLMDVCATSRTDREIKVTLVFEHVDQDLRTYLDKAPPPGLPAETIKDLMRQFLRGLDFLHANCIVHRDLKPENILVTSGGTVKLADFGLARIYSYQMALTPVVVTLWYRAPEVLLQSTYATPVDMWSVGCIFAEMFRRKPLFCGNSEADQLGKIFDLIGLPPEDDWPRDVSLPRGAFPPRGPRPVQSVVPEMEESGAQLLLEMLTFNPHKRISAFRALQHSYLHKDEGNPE
T1 sequence (P24385 whole entry partner, species assumed): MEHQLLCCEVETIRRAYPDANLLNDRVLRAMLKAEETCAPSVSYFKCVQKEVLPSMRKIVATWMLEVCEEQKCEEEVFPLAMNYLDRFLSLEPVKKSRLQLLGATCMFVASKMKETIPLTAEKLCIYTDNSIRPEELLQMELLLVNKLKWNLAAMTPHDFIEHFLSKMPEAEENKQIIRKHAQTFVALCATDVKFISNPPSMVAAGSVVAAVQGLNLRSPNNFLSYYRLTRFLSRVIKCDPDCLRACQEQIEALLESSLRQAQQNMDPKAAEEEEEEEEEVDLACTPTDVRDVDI
Excerpt: CDK4/Cyclin D1 Mobility Shift Assay (MSA) The purpose CDK4/Cyclin D1 assay is to evaluate the inhibition (% inhibition and IC50 values) in the presence of small molecule inhibitors by using a fluorescence based microfluidic mobility shift assay. CDK4/Cyclin D1 catalyzes the production of ADP from ATP that accompanies the phosphoryl transfer to the substrate peptide 5-FAM-Dyrktide (5-FAM-[…]) (Perkin Elmer Peptide 34). The mobility shift assay (MSA) electrophoretically separates the fluorescently labelled peptides (substrate and phosphorylated product) following the kinase reaction. Both substrate and product are measured, and the ratio of these values is used to generate % conversion of substrate to product by the LabChip EZ Reader. Typical reaction solutions contained 2% DMSO (+/−inhibitor), 10 mM MgCl2, 1 mM EGTA, 0.05% BSA, 2 mM DTT, 0.2 mM ATP, 0.01% Brig-35, 1.5 uM 5-FAM-Dyrktide, 2.5 nM CDK4/Cyclin D1 in 50 mM HEPES buffer at pH 7.5. The reaction was initiated with the addition of substrate solution, following a 30-minute pre-incubation of enzyme and inhibitor at 22° C. in the reaction mix. The reaction was stopped after 180 minutes by the addition of 75 μL of 500 mM EDTA and measured on a Perkin Elmer EZ reader instrument. IC50 determinations were made from a plot of the fractional velocity as a function of inhibitor concentration fit to the 4 parameters IC50 equation.

CDK6/Cyclin D3 = CDK6/Cyclin D3 (Homo sapiens (Human), UniProt Q00534); experiment: CDK6/Cyclin D3 ADP-Glo Kinase Assay; conditions: read-out: CDK6/CyclinD3 IC50
Chain of CDK6/Cyclin D3 (Q00534 whole entry): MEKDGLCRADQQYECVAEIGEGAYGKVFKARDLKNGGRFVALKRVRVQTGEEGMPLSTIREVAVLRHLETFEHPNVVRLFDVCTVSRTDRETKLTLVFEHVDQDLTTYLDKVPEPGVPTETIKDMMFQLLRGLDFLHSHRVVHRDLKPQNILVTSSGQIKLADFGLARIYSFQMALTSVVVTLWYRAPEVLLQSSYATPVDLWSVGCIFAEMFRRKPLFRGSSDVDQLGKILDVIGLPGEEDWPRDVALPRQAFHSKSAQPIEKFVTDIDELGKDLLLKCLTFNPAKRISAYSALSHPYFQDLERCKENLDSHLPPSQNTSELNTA
Chain of CDK6/Cyclin D3 (P30281 whole entry partner): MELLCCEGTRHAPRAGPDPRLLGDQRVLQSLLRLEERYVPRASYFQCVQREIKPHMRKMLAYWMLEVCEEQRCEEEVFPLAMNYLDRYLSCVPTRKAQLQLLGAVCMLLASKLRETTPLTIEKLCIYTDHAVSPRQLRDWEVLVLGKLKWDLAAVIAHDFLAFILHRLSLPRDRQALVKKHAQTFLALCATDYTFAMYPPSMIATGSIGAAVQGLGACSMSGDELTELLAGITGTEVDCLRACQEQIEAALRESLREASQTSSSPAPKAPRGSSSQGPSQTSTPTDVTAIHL
Outline: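 Commercial CDK6/Cyclin D3 pre-incubated with inhibitor 30 min at room temperature, then reaction started with ATP/substrate and run 90 min at room temperature. ADP formed measured by ADP-Glo luminescence; IC50 from fractional velocity vs inhibitor concentration fit to a 4-parameter equation.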

CDK4/Cyclin D1 [2] = target: T1, CDK4/Cyclin D1; experiment: CDK4/Cyclin D1 CHEF Assay; conditions: AQT; read-out: CDK4/CyclinD1 AQT IC50
Outline: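 Peptide substrate AQT0258 carries a Sox fluorophore whose Mg(II)-dependent fluorescence (ex 360/em 485 nm) rises on phosphorylation. Enzyme and inhibitor pre-incubated 30 min at 22 °C, substrate added, reaction run 3 h at 22 °C. IC50 from 4-parameter fit of fractional velocity vs inhibitor concentration.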

[3] = target: CDK2/Cyclin E1 full length (Homo sapiens (Human), UniProt P24941); experiment: CDK2/Cyclin E1 Full length ADP-Glo Kinase Assay; conditions: read-out: CDK2/CyclinE1 IC50
Procedure: CDK2/Cyclin E1 Full length ADP-Glo Kinase Assay
The purpose of CDK2/Cyclin El assay is to evaluate the inhibition (% inhibition and IC50 values) of small molecule inhibitors by using a Luminescent based ADP-Glo assay. CDK2/Cyclin El full length catalyzes the production of ADP from ATP. ADP-Glo assay monitors ADP producing biochemical reactions. ADP-Glo is performed in 2 steps upon completion of kinase reaction: a combined termination of kinase reaction and depletion of remaining ATP in the first step, and conversion of generated ADP to ATP and the newly produced ATP to light output using luciferase/luciferin reaction in the second step. The luminescent signal generated is proportional to the ADP concentration produced and is correlated with the kinase activity. CDK2/Cyclin E1 was purchased from Eurofins (Cat 14-475M). […] The assay was initiated with the addition of ATP-containing substrate solution, following a 30-minute pre-incubation of enzyme and inhibitor at room temperature in the reaction mixture. The reaction was stopped after 90 minutes at room temperature by the addition of 10 μL of ADP-GLO Reagent. After a 90 minute incubation, 20 uL of Kinase Detection Reagent was added. Samples were incubated for 40 minutes, after which plate well luminescence was measured on a Envision microplate reader. The IC50 determinations were made from a plot of the fractional velocity as a function of inhibitor concentration fit to the 4 parameters IC50 equation.

Chain of CDK1/Cyclin B1 (P06493 whole entry): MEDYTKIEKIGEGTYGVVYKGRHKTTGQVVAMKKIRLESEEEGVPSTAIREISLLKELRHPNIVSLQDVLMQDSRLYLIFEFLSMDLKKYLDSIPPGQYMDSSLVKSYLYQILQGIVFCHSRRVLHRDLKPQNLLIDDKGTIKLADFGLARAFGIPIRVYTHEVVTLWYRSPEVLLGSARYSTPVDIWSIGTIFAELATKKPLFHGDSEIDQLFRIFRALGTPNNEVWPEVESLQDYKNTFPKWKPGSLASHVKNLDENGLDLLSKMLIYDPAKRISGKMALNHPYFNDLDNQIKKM
Chain of CDK1/Cyclin B1 (P14635 whole entry partner): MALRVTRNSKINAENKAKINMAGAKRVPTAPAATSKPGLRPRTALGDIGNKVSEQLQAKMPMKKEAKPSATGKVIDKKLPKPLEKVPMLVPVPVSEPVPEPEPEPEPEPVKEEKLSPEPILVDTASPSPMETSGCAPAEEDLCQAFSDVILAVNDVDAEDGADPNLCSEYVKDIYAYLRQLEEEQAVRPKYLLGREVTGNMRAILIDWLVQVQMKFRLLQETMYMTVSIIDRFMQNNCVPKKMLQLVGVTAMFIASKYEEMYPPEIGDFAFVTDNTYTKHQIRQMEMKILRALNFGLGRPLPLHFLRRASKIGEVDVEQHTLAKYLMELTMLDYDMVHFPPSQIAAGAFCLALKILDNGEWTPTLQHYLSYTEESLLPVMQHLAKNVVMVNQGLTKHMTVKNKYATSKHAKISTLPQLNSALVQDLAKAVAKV

IC50 (CDK1/Cyclin B1) | IC50 (CDK4/Cyclin D1 [1]) | IC50 (CDK6/Cyclin D3) | IC50 (CDK4/Cyclin D1 [2]) | IC50 [3] | Compound
> 2000 nM | < 200 nM | < 200 nM |  |  | CN1CCn2nc(Nc3ncc4ccnc(N5CCC6(C5)CC6(F)F)c4n3)cc2C1 (stereo not drawn) [Compound 10, 8-(1,1-difluoro-5-azaspiro[2.4]heptan-5-yl)-N-(5-methyl-4,5,6,7-tetrahydropyrazolo [1,5-a]pyrazin-2-yl)pyrido[3,4-d]pyrimidin-2-amine]
< 200 nM | < 200 nM | < 200 nM |  |  | CS(=O)(=O)N1CCC(Nc2ncc3ccnc(N4CCC(C#N)(C5CC5)C4)c3n2)CC1 (stereo not drawn) [Compound 5, 3-cyclopropyl-1-(2-((1-(methylsulfonyl)piperidin-4-yl)amino)pyrido[3,4-d]pyrimidin-8-yl)pyrrolidine-3-carbonitrile]
200 to 500 nM | < 200 nM | < 200 nM |  |  | CS(=O)(=O)N1CC(Nc2ncc3ccnc(N4CCC5(C4)CC5(F)F)c3n2)C1 (stereo not drawn) [Compound 14, 8-(1,1-difluoro-5-azaspiro[2.4]heptan-5-yl)-N-(1-(methylsulfonyl)azetidin-3-yl) pyrido[3,4-d]pyrimidin-2-amine]
200 to 500 nM | < 200 nM |  |  |  | CS(=O)(=O)N1CCC(Nc2ncc3ccnc(N4CC5(C4)CN(C4CC4)C5)c3n2)CC1 [Compound 8, 8-(6-cyclopropyl-2,6-diazaspiro[3.3]heptan-2-yl)-N-(1-(methylsulfonyl)piperidin-4-yl)pyrido[3,4-d]pyrimidin-2-amine]
 | < 200 nM | 200 to 500 nM |  |  | CS(=O)(=O)N1CCC(Nc2ncc3ccnc(N4CCN(C5CC5)CC4)c3n2)CC1 [Compound 1, 8-(4-cyclopropylpiperazin-1-yl)-N-(1-(methylsulfonyl)piperidin-4-yl)pyrido[3,4-d]pyrimidin-2-amine]
200 to 500 nM | < 200 nM | < 200 nM |  |  | CS(=O)(=O)N1CCC(Nc2ncc3ccnc(N4CCC5(CCOCC5)C4)c3n2)CC1 [Compound 7, N-(1-(methylsulfonyl)piperidin-4-yl)-8-(8-oxa-2-azaspiro[4.5]decan-2-yl)pyrido[3,4-d]pyrimidin-2-amine]
< 200 nM |  | < 200 nM | < 200 nM | < 200 nM | O=S(=O)(C1CC1)N1CCC(Nc2ncc3cc(C(F)F)nc(N4CC5(CCNC5)C4)c3n2)CC1 [Compound 46, 1-(cyclopropanesulfonyl)-N-(8-{2,6-diazaspiro[3.4]octan-2-yl}-6-(difluoromethyl)pyrido[3,4-d]pyrimidin-2-yl)piperidin-4-amine]
 | < 200 nM | < 200 nM |  |  | CN1CCC(n2cc(Nc3ncc4ccnc(N5CCC6(C5)CC6(F)F)c4n3)cn2)CC1 (stereo not drawn) [Compound 20, 8-(1,1-difluoro-5-azaspiro[2.4]heptan-5-yl)-N-(1-(1-methylpiperidin-4-yl)-1H-pyrazol-4-yl)pyrido[3,4-d]pyrimidin-2-amine]
200 to 500 nM | < 200 nM | < 200 nM |  |  | CN1CCN(c2ccc(Nc3ncc4ccnc(N5CCC6(C5)CC(F)(F)C6)c4n3)cc2)CC1 [Compound 4, 8-(2,2-difluoro-6-azaspiro[3.4]octan-6-yl)-N-(4-(4-methylpiperazin-1-yl)phenyl)pyrido [3,4-d]pyrimidin-2-amine]
> 2000 nM |  | 200 to 500 nM | 200 to 500 nM | 200 to 500 nM | Cc1cc2cnc(Nc3ccc(N4CC5(CN(C)C5)C4)cc3)nc2c(N2CC3(C2)CS(=O)(=O)C3)n1 [Compound 30, 6-(6-methyl-2-((4-(6-methyl-2,6-diazaspiro[3.3]heptan-2-yl)phenyl)amino)pyrido[3,4-d]pyrimidin-8-yl)-2-thia-6-azaspiro[3.3]heptane 2,2-dioxide]
> 2000 nM |  |  | 200 to 500 nM | 200 to 500 nM | Cc1cc2cnc(Nc3cnn(C4CC5(C4)CN(C)C5)c3)nc2c(N2CC3(C2)CN(S(C)(=O)=O)C3)n1 [Compound 26, 6-methyl-N-(1-(2-methyl-2-azaspiro[3.3]heptan-6-yl)-1H-pyrazol-4-yl)-8-(6-(methylsulfonyl)-2,6-diazaspiro[3.3]heptan-2-yl) pyrido[3,4-d]pyrimidin-2-amine]
500 to 2000 nM |  | 200 to 500 nM | < 200 nM | < 200 nM | Cc1cc2cnc(NC3CCN(S(C)(=O)=O)CC3)nc2c(N2CC3(CN(C)C[C@H]3F)C2)n1 [Compound 104, (S)-8-(8-fluoro-6-methyl-2,6-diazaspiro[3.4]octan-2-yl)-6-methyl-N-(1-(methylsulfonyl)piperidin-4-yl)pyrido[3,4-d]pyrimidin-2-amine]
> 2000 nM |  | 500 to 2000 nM | < 200 nM | < 200 nM | Cc1cc2cnc(NC3CCN(S(C)(=O)=O)CC3)nc2c(N2CC3(C2)CN(C2CC2)C3)n1 [Compound 42, 8-(6-cyclopropyl-2,6-diazaspiro[3.3]heptan-2-yl)-6-methyl-N-(1-(methylsulfonyl)piperidin-4-yl)pyrido[3,4-d]pyrimidin-2-amine]
> 2000 nM |  |  | < 200 nM | 200 to 500 nM | Cc1cc2cnc(Nc3ccc4c(c3)CN(C3CN(S(C)(=O)=O)C3)C4)nc2c(N2CC3(CN(C)C3)C2)n1 [Compound 29, 6-methyl-8-(6-methyl-2,6-diazaspiro[3.3]heptan-2-yl)-N-(2-(1-(methylsulfonyl)azetidin-3-yl)isoindolin-5-yl)pyrido[3,4-d]pyrimidin-2-amine]
200 to 500 nM | < 200 nM |  |  |  | CN1CCN(c2ccc(Nc3ncc4ccnc(N5CCC6(CCN(S(C)(=O)=O)C6)C5)c4n3)cc2)CC1 (stereo not drawn) [Compound 9, N-(4-(4-methylpiperazin-1-yl)phenyl)-8-(7-(methylsulfonyl)-2,7-diazaspiro[4.4]nonan-2-yl) pyrido[3,4-d]pyrimidin-2-amine]
 |  | < 200 nM | < 200 nM | 200 to 500 nM | Cc1cc2cnc(Nc3cnn(C4CC5(C4)CN(C)C5)c3)nc2c(N2CCC3(C2)CC3(F)F)n1 (stereo not drawn) [Compound 33, 8-(1,1-difluoro-5-azaspiro[2.4]heptan-5-yl)-6-methyl-N-(1-(2-methyl-2-azaspiro[3.3]heptan-6-yl)-1H-pyrazol-4-yl)pyrido[3,4-d]pyrimidin-2-amine]
500 to 2000 nM |  | < 200 nM | < 200 nM | < 200 nM | Cc1cc2cnc(NC3CCN(S(C)(=O)=O)CC3)nc2c(N2CC3(CN(C)C[C@@H]3F)C2)n1 [Compound 103, (R)-8-(8-fluoro-6-methyl-2,6-diazaspiro[3.4]octan-2-yl)-6-methyl-N-(1-(methylsulfonyl)piperidin-4-yl)pyrido[3,4-d]pyrimidin-2-amine]
> 2000 nM |  | > 2000 nM | > 2000 nM | 200 to 500 nM | Cc1cc2cnc(Nc3cc4c(cc3F)CN(S(C)(=O)=O)C4)nc2c(N2CC3(CNC3)C2)n1 [Compound 37, N-(6-fluoro-2-(methylsulfonyl)isoindolin-5-yl)-6-methyl-8-(2,6-diazaspiro[3.3]heptan-2-yl) pyrido[3,4-d]pyrimidin-2-amine]
> 2000 nM |  | < 200 nM | < 200 nM | 200 to 500 nM | Cc1cc2cnc(Nc3ccc(N4CC5(CN(C)C5)C4)cc3)nc2c(N2CCC3(CCOCC3)C2)n1 [Compound 35, 6-methyl-N-(4-(6-methyl-2,6-diazaspiro[3.3]heptan-2-yl)phenyl)-8-(8-oxa-2-azaspiro[4.5]decan-2-yl)pyrido[3,4-d]pyrimidin-2-amine]
